According to ChEMBL document CHEMBL5725264, “4-(ortho)-fluorophenyl-5-fluoropyrimidin-2-yl amines containing a sulfoximine group” (2016):

Experiments:
[1] = CDK9/CycT1 Kinase Assay: Method 1a: Recombinant full-length His-tagged human CDK9 and CycT1, expressed in insect cells and purified by Ni-NTA affinity chromatography, were purchased from Invitrogen (Cat. No PV4131). As substrate for the kinase reaction biotinylated peptide biotin-Ttds-[…] (C-terminus in amid form) was used which can be purchased e.g. form the company JERINI Peptide Technologies (Berlin, Germany).For the assay 50 nl of a 100 fold concentrated solution of the test compound in DMSO was pipetted into a black low volume 384 well microtiter plate (Greiner Bio-One, Frickenhausen, Germany), 2 ul of a solution of CDK9/CycT1 in aqueous assay buffer [50 mM Tris/HCl pH 8.0, 10 mM MgCl2, 1.0 mM dithiothreitol, 0.1 mM sodium ortho-vanadate, 0.01% (v/v) Nonidet-P40 (Sigma)] were added and the mixture was incubated for 15 min at 22° C. to allow pre-binding of the test compounds to the enzyme before the start of the kinase reaction. […] The concentration of CDK9/CycT1 was adjusted depending of the activity of the enzyme lot and was chosen appropriate to have the assay in the linear range, typical concentrations were in the range of 1 ug/ml. […]
[2] = CDK2/CycE Kinase Assay: Method 2: Recombinant fusion proteins of GST and human CDK2 and of GST and human CycE, expressed in insect cells (Sf9) and purified by Glutathion-Sepharose affinity chromatography, were purchased from ProQinase GmbH (Freiburg, Germany). As substrate for the kinase reaction biotinylated peptide biotin-Ttds-[…] (C-terminus in amid form) was used which can be purchased e.g. form the company JERINI Peptide Technologies (Berlin, Germany).For the assay 50 nl of a 100 fold concentrated solution of the test compound in DMSO was pipetted into a black low volume 384 well microtiter plate (Greiner Bio-One, Frickenhausen, Germany), 2 ul of a solution of CDK2/CycE in aqueous assay buffer [50 mM Tris/HCl pH 8.0, 10 mM MgCl2, 1.0 mM dithiothreitol, 0.1 mM sodium ortho-vanadate, 0.01% (v/v) Nonidet-P40 (Sigma)] were added and the mixture was incubated for 15 min at 22° C. to allow pre-binding of the test compounds to the enzyme before the start of the kinase reaction. […] The concentration of CDK2/CycE was adjusted depending of the activity of the enzyme lot and was chosen appropriate to have the assay in the linear range, typical concentrations were in the range of 130 ng/ml. […]
[3] = CDK9/CycT1 High ATP Kinase Assay: Method 1b: Recombinant full-length His-tagged human CDK9 and CycT1, expressed in insect cells and purified by Ni-NTA affinity chromatography, were purchase from Invitrogen (Cat. No PV4131). As substrate for the kinase reaction biotinylated peptide biotin-Ttds-[…] (C-terminus in amid form) was used which can be purchased e.g. form the company JERINI peptide technologies (Berlin, Germany).For the assay 50 nl of a 100 fold concentrated solution of the test compound in DMSO was pipetted into a black low volume 384 well microtiter plate (Greiner Bio-One, Frickenhausen, Germany), 2 ul of a solution of CDK9/CycT1 in aqueous assay buffer [50 mM Tris/HCl pH 8.0, 10 mM MgCl2, 1.0 mM dithiothreitol, 0.1 mM sodium ortho-vanadate, 0.01% (v/v) Nonidet-P40 (Sigma)] were added and the mixture was incubated for 15 min at 22° C. to allow pre-binding of the test compounds to the enzyme before the start of the kinase reaction. […] The concentration of CDK9/CycT1 was adjusted depending of the activity of the enzyme lot and was chosen appropriate to have the assay in the linear range, typical concentrations were in the range of 0.5 ug/ml. […]

| Structure (SMILES) | IC50 [1] | IC50 [2] | IC50 [3] |
| --- | --- | --- | --- |
| C[S@](=N)(=O)Cc1cc(Nc2ncc(F)c(-c3ccc(F)cc3F)n2)cc(C(F)(F)F)c1 | 13 nM | 630 nM | 231 nM |
| C[S@@](=N)(=O)Cc1cc(Nc2ncc(F)c(-c3ccc(F)cc3F)n2)cc(C(F)(F)F)c1 | 11 nM | 780 nM | 235 nM |
